The subject of assay [1] is Streptococcus sp. 'group A'. The experiment in a line: growth inhibition of control SK(-) GAS strain, dose response, counter-screen for streptokinase expression inhibitor project, luminescence, kanamycin, BacTiterGlo, confirmation (AID 1900). The class given is functional, organism-based.
The target in assay [2] is T1, Histone-lysine N-methyltransferase NSD2 (Homo sapiens, UniProt O96028).
T1 sequence (O96028 whole entry): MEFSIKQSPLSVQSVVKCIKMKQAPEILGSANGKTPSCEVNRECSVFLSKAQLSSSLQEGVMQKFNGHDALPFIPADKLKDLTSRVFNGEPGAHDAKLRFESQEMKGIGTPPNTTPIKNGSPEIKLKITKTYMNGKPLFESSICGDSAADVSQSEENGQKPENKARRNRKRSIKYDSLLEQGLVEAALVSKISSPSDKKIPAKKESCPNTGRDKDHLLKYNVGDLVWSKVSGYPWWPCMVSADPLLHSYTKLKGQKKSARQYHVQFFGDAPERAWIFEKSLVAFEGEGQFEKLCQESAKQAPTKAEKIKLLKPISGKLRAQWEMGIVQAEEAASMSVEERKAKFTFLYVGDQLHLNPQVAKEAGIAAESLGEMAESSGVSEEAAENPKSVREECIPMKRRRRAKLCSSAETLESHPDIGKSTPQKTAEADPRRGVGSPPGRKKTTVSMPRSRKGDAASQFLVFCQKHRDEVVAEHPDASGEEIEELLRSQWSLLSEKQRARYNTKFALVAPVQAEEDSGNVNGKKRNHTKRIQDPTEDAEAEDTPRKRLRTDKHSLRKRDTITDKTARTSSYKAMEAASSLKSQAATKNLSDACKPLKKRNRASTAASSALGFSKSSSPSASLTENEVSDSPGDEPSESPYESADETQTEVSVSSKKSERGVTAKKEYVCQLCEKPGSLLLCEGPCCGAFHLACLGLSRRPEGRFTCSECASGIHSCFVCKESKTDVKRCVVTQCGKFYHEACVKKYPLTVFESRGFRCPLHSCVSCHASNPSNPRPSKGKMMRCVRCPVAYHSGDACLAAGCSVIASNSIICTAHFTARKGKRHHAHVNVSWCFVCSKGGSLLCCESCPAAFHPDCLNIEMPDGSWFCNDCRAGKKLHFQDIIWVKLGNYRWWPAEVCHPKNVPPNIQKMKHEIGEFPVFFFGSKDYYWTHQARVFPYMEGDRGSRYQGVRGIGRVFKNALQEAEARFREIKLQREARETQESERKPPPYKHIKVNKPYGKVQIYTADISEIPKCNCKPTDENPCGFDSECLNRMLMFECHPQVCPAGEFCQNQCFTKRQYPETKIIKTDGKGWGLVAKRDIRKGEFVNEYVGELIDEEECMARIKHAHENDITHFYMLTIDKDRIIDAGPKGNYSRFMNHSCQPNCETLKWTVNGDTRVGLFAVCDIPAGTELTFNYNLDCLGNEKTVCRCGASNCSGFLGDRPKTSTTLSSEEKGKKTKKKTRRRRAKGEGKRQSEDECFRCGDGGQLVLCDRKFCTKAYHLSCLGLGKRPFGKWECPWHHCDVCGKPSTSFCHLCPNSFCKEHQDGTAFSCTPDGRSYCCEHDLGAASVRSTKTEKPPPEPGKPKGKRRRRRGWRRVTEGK
The class given is biochemical.

Assay [3] concerns the target Tyrosine-protein kinase ABL1 (Homo sapiens, UniProt P00519). The class given is functional.
The target of assay [4] is Megakaryocyte-associated tyrosine-protein kinase (Homo sapiens, UniProt P42679). The format is functional.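 Also: affinity measured as one member of a kinase panel (Navigating the Kinome) against MATK.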
Assay [5] deals with Tyrosine-protein kinase SYK (Homo sapiens, UniProt P43405). The class given is functional.
The target of assay [6] is Testis-specific serine/threonine-protein kinase 2 (Homo sapiens, UniProt Q96PF2). The class given is functional.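 Also: part of the Navigating the Kinome panel, target entry STK22B.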
The target of assay [7] is Ribosomal protein S6 kinase alpha-5 (Homo sapiens, UniProt O75582). The class given is functional.
Ribosomal protein S6 kinase alpha-5, sequence (O75582 whole entry): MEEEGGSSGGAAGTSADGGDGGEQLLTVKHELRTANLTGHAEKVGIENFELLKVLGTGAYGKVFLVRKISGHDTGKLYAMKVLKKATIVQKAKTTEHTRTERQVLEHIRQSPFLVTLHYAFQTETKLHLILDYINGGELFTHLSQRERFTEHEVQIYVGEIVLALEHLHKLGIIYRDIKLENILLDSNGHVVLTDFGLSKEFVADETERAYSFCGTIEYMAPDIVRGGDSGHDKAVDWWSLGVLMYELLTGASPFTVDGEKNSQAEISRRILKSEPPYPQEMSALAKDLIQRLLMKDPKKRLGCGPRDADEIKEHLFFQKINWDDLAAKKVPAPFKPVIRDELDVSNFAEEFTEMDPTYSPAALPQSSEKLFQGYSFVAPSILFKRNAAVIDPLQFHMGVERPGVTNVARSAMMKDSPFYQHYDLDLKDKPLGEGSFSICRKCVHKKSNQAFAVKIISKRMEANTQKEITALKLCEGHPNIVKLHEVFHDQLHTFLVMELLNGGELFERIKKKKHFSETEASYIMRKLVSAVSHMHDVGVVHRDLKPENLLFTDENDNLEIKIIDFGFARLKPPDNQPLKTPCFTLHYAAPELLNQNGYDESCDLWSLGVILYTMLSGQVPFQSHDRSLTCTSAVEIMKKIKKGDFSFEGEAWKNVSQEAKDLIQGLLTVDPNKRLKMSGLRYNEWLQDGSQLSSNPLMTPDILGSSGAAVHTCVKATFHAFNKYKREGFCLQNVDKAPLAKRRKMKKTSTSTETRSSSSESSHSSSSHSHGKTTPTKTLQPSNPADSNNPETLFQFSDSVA
Assay [8] concerns the target Tyrosine-protein kinase Srms (Homo sapiens, UniProt Q9H3Y6). The class given is functional.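 Also: SRMS measured as one member of a kinome-wide kinase profiling panel.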
Assay [9] concerns the target MAP kinase-interacting serine/threonine-protein kinase 2 (Homo sapiens, UniProt Q9HBH9). The format is functional.
Assay [10] deals with Calcium/calmodulin-dependent protein kinase type II subunit beta (Homo sapiens, UniProt Q13554). The format is functional.
Calcium/calmodulin-dependent protein kinase type II subunit beta, sequence (Q13554 whole entry): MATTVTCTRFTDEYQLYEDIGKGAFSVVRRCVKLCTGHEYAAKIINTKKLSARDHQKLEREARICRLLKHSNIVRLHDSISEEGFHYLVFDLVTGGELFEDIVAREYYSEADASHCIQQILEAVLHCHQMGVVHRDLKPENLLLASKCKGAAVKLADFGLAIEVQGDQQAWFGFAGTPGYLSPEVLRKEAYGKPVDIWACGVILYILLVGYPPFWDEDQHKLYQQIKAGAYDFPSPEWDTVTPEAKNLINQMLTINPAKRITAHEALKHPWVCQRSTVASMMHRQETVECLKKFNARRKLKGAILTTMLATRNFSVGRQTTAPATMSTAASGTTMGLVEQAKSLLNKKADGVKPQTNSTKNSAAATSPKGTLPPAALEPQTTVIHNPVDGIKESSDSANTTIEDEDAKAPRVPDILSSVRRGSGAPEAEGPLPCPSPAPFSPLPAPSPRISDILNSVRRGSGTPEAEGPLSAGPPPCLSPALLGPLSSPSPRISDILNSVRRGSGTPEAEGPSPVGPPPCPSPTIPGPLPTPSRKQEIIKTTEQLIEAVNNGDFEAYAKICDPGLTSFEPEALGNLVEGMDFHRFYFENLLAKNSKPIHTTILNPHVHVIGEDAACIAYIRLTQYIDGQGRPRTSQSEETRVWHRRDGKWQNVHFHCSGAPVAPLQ
A further assay has as its target Ephrin type-A receptor 2 (Homo sapiens, UniProt P29317). The format is functional.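 Also: EPHA2 tested as one member of a kinome-wide kinase panel.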
In assay [11] the target is Interleukin-1 receptor-associated kinase 4 (Homo sapiens, UniProt Q9NWZ3). The format is functional.
For assay [12], the target named is Vascular endothelial growth factor receptor 3 (Homo sapiens, UniProt P35916). The format is functional.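 Also: value from a kinome-wide profiling panel, with FLT4 as the panel member.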
Assay [13] addresses Tyrosine-protein kinase Fer (Homo sapiens, UniProt P16591). The format is functional.
For assay [14], the target named is 3-phosphoinositide-dependent protein kinase 1 (Homo sapiens, UniProt O15530). The class given is functional.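 Also: value comes from the Navigating the Kinome panel, PDPK1 member.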
3-phosphoinositide-dependent protein kinase 1, sequence (O15530 whole entry): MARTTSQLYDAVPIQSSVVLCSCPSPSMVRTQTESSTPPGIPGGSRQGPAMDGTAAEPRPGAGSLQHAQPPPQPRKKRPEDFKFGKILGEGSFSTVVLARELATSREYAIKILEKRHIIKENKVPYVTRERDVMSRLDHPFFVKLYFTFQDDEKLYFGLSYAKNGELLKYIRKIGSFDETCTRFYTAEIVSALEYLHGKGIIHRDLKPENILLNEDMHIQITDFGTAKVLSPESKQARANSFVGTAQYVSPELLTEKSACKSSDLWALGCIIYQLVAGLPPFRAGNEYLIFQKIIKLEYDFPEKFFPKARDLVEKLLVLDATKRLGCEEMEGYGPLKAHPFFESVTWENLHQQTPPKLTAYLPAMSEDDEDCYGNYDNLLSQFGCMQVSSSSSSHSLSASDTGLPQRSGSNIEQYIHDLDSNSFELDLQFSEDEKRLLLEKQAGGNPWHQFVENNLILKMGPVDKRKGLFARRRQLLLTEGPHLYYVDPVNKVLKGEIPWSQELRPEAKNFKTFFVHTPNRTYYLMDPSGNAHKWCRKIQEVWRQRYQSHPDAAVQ
For assay [15], the target named is Serine/threonine-protein kinase DCLK1 (Homo sapiens, UniProt O15075). The class given is functional.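 Also: affinity for DCLK1 (listed as DCAMKL1) measured as one member of a kinome-wide kinase profiling panel.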
The target of assay [16] is STE20-like serine/threonine-protein kinase (Homo sapiens, UniProt Q9H2G2). The format is functional.
For assay [17], the target named is Fibroblast growth factor receptor 3 (Homo sapiens, UniProt P22607). The class given is functional.
Assay [18] deals with Serine/threonine-protein kinase MRCK alpha (Homo sapiens, UniProt Q5VT25). The format is functional.
Serine/threonine-protein kinase MRCK alpha, sequence (Q5VT25 whole entry): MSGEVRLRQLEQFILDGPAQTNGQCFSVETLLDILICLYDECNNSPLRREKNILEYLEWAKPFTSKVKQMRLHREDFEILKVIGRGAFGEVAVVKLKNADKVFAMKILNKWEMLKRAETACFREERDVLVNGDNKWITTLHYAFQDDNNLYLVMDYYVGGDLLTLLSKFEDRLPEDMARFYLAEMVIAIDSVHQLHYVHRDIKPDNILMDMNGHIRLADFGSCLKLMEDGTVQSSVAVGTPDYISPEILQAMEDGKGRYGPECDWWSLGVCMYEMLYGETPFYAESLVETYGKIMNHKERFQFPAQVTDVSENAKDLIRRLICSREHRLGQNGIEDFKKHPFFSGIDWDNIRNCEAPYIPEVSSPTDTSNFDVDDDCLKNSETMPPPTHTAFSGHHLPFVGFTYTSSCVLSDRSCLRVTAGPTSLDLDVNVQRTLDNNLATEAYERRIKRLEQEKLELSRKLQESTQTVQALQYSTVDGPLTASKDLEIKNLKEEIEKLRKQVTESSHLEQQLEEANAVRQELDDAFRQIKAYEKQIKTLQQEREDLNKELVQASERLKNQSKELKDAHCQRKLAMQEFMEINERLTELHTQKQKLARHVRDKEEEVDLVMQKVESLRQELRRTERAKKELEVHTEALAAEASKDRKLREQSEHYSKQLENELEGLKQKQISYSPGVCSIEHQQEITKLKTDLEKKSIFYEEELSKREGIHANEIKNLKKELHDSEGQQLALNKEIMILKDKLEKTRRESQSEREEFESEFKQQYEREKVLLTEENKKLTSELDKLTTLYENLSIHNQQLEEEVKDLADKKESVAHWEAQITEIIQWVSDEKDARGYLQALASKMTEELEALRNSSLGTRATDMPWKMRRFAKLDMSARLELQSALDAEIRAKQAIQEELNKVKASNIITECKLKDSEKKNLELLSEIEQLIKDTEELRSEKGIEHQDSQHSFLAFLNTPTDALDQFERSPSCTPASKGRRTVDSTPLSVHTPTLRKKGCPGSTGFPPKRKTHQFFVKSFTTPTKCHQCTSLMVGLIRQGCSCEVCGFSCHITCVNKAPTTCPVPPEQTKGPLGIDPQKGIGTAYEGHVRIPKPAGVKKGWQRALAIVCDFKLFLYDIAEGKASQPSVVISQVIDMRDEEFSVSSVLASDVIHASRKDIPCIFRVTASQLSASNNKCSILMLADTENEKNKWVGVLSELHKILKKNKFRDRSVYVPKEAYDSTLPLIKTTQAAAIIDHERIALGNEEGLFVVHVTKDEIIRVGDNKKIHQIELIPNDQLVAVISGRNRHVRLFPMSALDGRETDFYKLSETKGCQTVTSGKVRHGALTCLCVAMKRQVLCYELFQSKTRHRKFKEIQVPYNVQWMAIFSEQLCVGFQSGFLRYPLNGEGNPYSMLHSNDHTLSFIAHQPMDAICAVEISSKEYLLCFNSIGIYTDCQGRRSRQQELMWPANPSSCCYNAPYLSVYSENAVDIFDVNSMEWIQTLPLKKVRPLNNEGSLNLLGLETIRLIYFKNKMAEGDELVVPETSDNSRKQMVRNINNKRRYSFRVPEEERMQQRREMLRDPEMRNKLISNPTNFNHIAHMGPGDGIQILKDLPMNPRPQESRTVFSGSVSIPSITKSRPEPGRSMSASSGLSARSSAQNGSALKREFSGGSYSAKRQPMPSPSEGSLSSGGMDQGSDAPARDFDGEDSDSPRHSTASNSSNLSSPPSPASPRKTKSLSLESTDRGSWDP
The target in assay [19] is Serine/threonine-protein kinase BRSK1 (Homo sapiens, UniProt Q8TDC3). The class given is functional.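 Also: measured within a kinome-wide kinase panel, with the target listed as KIAA1811.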
Serine/threonine-protein kinase BRSK1, sequence (Q8TDC3 whole entry): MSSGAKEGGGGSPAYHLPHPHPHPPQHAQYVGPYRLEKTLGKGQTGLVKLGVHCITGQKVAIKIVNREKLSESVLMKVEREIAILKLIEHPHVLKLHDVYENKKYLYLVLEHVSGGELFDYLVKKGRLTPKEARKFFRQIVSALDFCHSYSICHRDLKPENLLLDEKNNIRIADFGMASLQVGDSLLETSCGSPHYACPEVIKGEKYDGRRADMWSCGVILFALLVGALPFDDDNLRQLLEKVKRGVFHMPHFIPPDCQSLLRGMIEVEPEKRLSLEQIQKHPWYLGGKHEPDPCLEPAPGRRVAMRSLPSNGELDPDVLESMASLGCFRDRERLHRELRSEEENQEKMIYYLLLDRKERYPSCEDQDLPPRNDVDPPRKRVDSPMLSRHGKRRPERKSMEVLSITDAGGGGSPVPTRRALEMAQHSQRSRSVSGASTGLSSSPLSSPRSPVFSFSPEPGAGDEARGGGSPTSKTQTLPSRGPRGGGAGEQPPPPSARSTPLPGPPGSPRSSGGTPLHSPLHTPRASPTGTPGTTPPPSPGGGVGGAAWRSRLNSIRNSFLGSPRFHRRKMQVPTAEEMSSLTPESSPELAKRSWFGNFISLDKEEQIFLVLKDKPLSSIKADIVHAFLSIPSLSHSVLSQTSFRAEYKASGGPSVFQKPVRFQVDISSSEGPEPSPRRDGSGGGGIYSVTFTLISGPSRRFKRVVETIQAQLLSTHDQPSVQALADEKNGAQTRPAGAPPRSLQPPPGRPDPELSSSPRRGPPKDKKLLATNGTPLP

Structures are written as SMILES. Active and inactive are the calls of the source.

MAP kinase-interacting serine/threonine-protein kinase 2, sequence (Q9HBH9 whole entry): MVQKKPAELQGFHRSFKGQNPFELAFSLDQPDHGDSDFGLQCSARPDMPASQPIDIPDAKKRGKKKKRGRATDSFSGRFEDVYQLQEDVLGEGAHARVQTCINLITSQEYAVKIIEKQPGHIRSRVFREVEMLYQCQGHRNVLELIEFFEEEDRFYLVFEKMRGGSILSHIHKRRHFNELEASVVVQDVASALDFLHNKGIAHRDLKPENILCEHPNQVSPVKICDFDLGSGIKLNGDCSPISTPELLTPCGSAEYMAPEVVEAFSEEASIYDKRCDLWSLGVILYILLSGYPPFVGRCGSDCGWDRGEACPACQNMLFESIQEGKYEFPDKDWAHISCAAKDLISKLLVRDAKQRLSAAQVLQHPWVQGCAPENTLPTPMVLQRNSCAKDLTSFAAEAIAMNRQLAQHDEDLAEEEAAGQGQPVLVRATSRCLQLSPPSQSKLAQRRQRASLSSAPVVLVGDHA

On to `CC(/C=C1\SC(=S)N(NS(=O)(=O)c2ccc(C)cc2)C1=O)=C\c1ccccc1`, for which the EC50 in assay [1] is 1410 nM (active). Besides, in assay [2], the AC50 is 9980 nM (active).

For `COc1ccc(C2=NNc3cccc4c(OC)ccc2c34)cc1OC`, the Ki in assay [3] was > 2510 nM (inactive).

As to `CN1CCC(c2c(O)cc(O)c3c(=O)cc(-c4ccccc4Cl)oc23)C(O)C1` (configuration not stated), the Ki in assay [4] is 316 nM (active); in assay [5], 794 nM (active); in [6] it was > 1580 nM (inactive); in assay [7] it was > 2000 nM (inactive); in [8] it was > 1580 nM (inactive); in [9], 5010 nM (active). The Ki in assay [10] was 5010 nM (active); on Ephrin type-A receptor 2 it was 2000 nM (active); in assay [11], 5010 nM (active); in assay [12], > 6310 nM (inactive); in assay [13] it was > 1580 nM (inactive); in assay [14], > 3980 nM (inactive). Further, the Ki in assay [15] is > 10000 nM (inactive); in assay [16], > 10000 nM (inactive); in assay [17], > 2000 nM (inactive); in [18], 631 nM (active); in [19] it was > 10000 nM (inactive). Also, the pKi in [10] is listed as 5.3; in assay [18], 6.2.

The values above are taken from ChEMBL document CHEMBL1201862, “PubChem BioAssay data set” (2004).
